For data set [1], the system named is E. coli ATCC 25922. Here is the method: (§1) The MICs of BP203 and MAP-0403 J-2 against clinically colistin-resistant E. coli and K. pneumoniae isolates were determined using the broth microdilution method, according to CLSI recommendations. Briefly, the peptides were subjected to serial dilution in cation-adjusted Mueller-Hinton broth (CAMHB) and added to a 96-well microtiter plate (Wuxi NEST Biotechnology, Wuxi, China). Subsequently, bacterial suspensions from freshly mid-log phase cultures were diluted to 10^6 CFU/mL with CAMHB, and introduced to each well containing the peptides.
(§2) The antibacterial activity of BP203 and MAP-0403 J-2 was evaluated concerning their response to temperature, pH, serum, and salt ions using the MIC assay, following the previously mentioned procedure. The MIC values of peptides were determined against E. coli ATCC29522 and K. pneumoniae ATCC BAA-1706. […] For the pH stability assay, both peptides were incubated in buffers with different pH values (100 mM buffers: glycine-HCl buffer (pH 2.0), sodium acetate buffer (pH 4.0), sodium phosphate buffer (pH 6.0), Tris-HCl buffer (pH 8.0), and glycine-NaOH buffer (pH 10.0)) for 1 h at 37°C. […] For serum stability assay, both peptides were exposed to 25% and 50% fetal bovine serum (FBS) for 1 h at 37°C, followed by a heat activation step for 30 min at 60°C. Afterward, the peptide solutions were serially diluted and MIC was subsequently determined. […] The serial dilutions of peptides were incubated with tested strains for MIC testing. The MICs were observed after 20–24 h of incubation at 37°C.

Data set [2] deals with K. pneumoniae ATCC BAA-1706. As to the method:
as §1, §2

Data set [3] deals with MRC-5 (CCL-171) normal lung fibroblast cells. The data set is described as follows: Cytotoxicity assay using MTT. Type of data set: cell-based, human. Conditions: for Cell viability at highest concentration: 200 μg/mL, 24 h; for IC50: 24 h exposure. As to the method: MRC-5 (CCL-171) cell line, a representative of normal lung fibroblast cells, was used to investigate the cytotoxic effects of two AMPs, BP203 and MAP-0403 J-2. The cells were grown in Dulbecco’s Modified Eagle Medium (DMEM, Cytiva Life Sciences, Marlborough, MA, USA), supplemented with 10% fetal bovine serum (FBS), 1% penicillin (10,000 U/mL) and streptomycin (10,000 μg/mL) (Gibco, Waltham, MA, USA). 2×10^4 cells were seeded into each well of a 96-well plate and allowed to adhere for 24 h. Then, these cells were subjected to exposure to a medium containing a prepared two-fold serial dilution of BP203 or MAP-0403 J-2. […] 3-(4,5-Dimethylthiazol-2-yl)-2,5-Diphenyltetrazolium Bromide (MTT) was introduced into each well to achieve a concentration of 0.5 mg/mL followed by 4 h. incubation. Subsequently, formazan crystals were dissolved through the addition of 100 μL of a solubilizing solution composed of 10% SDS in 0.1 N HCl and the developed color was measured using a microtiter plate reader at an optical density (OD) of 570 nm. Cell viability was calculated as follows: (ODsample/ODcontrol) × 100.

These results are taken from publication PMC10653547, “Synergistic effect of two antimicrobial peptides, BP203 and MAP-0403 J-2 with conventional antibiotics against colistin-resistant Escherichia coli and Klebsiella pneumoniae clinical isolates” (PLOS ONE, 2023).

Read-outs that look alike come from different tables or passages of the source. No end group written: not given here. A value given as a limit tells only on which side of the number the result lay.

With `CC[C@H](C)[C@H](NC(=O)[C@H](CCCCN)NC(=O)[C@H](CCCCN)NC(=O)[C@H](Cc1ccccc1)NC(=O)[C@H](CC(C)C)NC(=O)[C@H](CCCCN)NC(=O)[C@@H](N)CCCCN)C(=O)N[C@@H](CC(C)C)C(=O)N[C@@H](CCCNC(=N)N)C(=O)N[C@@H](Cc1ccc(O)cc1)C(=O)N[C@@H](CC(C)C)C(N)=O` [BP203], the “MIC in the presence of physiological salts” value (“MIC … of physiological salts” for short) amounted to 4 μg/mL in data set [1] (Control, 0); 4 μg/mL in data set [1] (FeCl3 1 μM); 4 μg/mL in data set [1] (FeCl3 4 μM); 4 μg/mL in data set [1] (FeCl3 8 μM); 4 μg/mL in data set [1] (MgCl2 0.5 mM); 4 μg/mL in data set [1] (MgCl2 1 mM). Moreover, the “MIC … of physiological salts” value turned out to be 8 μg/mL in data set [1] (MgCl2 2 mM); 8 μg/mL in data set [1] (NaCl 100 mM); 16 μg/mL in data set [1] (NaCl 150 mM); 16 μg/mL in data set [1] (NaCl 200 mM); 4 μg/mL in data set [2] (Control, 0); 4 μg/mL in data set [2] (FeCl3 1 μM). Further, the “MIC … of physiological salts” value in data set [2] (FeCl3 4 μM) turned out to be 8 μg/mL; in data set [2] (FeCl3 8 μM) it was 8 μg/mL; in data set [2] (MgCl2 0.5 mM) it was 4 μg/mL; in data set [2] (MgCl2 1 mM), 8 μg/mL; in data set [2] (MgCl2 2 mM), 8 μg/mL; in data set [2] (NaCl 100 mM), 8 μg/mL. Further, the “MIC … of physiological salts” value in data set [2] (NaCl 150 mM) and in data set [2] (NaCl 200 mM) was 16 μg/mL throughout. Further, the “Cell viability at highest concentration” value in data set [3] is reported as 56.01%. The 50% inhibitory concentration (IC50) in data set [3] is above 200 µg/mL.
Turning to KWLRRPWRRWR-NH2 [MAP-0403 J-2], the “MIC … of physiological salts” value came out at 16 μg/mL in data set [1] (Control, 0); 16 μg/mL in data set [1] (FeCl3 1 μM); 16 μg/mL in data set [1] (FeCl3 4 μM); 16 μg/mL in data set [1] (FeCl3 8 μM); 16 μg/mL in data set [1] (MgCl2 0.5 mM); 16 μg/mL in data set [1] (MgCl2 1 mM). Also, the “MIC … of physiological salts” value in data set [1] (MgCl2 2 mM) is recorded as 16 μg/mL; in data set [1] (NaCl 100 mM) it was 32 μg/mL; in data set [1] (NaCl 150 mM) it was 64 μg/mL; in data set [1] (NaCl 200 mM), 64 μg/mL; in data set [2] (Control, 0), 16 μg/mL; in data set [2] (FeCl3 1 μM) it was 16 μg/mL. In addition, the “MIC … of physiological salts” value in data set [2] (FeCl3 4 μM) came to 16 μg/mL; in data set [2] (FeCl3 8 μM) it was 32 μg/mL; in data set [2] (MgCl2 0.5 mM), 16 μg/mL; in data set [2] (MgCl2 1 mM) it was 16 μg/mL; in data set [2] (MgCl2 2 mM), 16 μg/mL; in data set [2] (NaCl 100 mM), 32 μg/mL. The “MIC … of physiological salts” value in data set [2] (NaCl 150 mM) and in data set [2] (NaCl 200 mM) was 64 μg/mL in each case. The “Cell viability at highest concentration” value in data set [3] was 73.43%. Also, the IC50 in data set [3] was above 200 µg/mL.

Usually IC50 stands for the concentration that inhibits the measured activity by half. Low readings indicate inhibition by little substance, high ones a need for much substance.
